Measurements from patent US20220133753A1, “COMPOSITIONS AND METHODS USEFUL FOR TREATING DISEASES CHARACTERIZED BY INSUFFICIENT PANTOTHENATE KINASE ACTIVITY” (Comet Therapeutics, Inc., priority 2016, published 2022).

Test system: C. elegans pantothenate kinase (pnk-1) mutants
Experiment: C. elegans pnk-1 mutant motility and lifespan with CoA in the food
Assay type: in vivo, Caenorhabditis elegans
Settings: CoA added to the food
Experimental: C. elegans Media and Strains: Standard culturing conditions were used for C. elegans maintenance at 20° C. N2 strain was used as a wild-type control. VC927, the PANK deletion mutant pnk-1 (ok1435)I/hT2[bli-4(e937) let-? (q782)qIs48](I; III), was obtained from the Caenorhabditis Genetics Center. To obtain synchronous cultures, worms were bleached with hypochlorite, and allowed to hatch in M9 buffer (3 g KH2PO4, 6 g Na2HPO4, 5 g NaCl, 1 ml 1 M MgSO4, H2O to 1 liter) overnight and cultured on standard Nematode Growth Medium (NGM) plates seeded with OP50 strain of Escherichia coli.
C. elegans Motility Assay: After synchronization, L1 C. elegans were grown on control NMG plates or NGM plates containing various concentrations of CoA. One-day old adults were placed in a drop of M9 buffer and allowed to recover for 30 sec. During the following 30 sec, the number of body bends was counted. A movement was scored as a bend when both the anterior and posterior ends of the animal turned to the same side. At least 15 worms were scored per condition and each experiment was repeated thrice.

## CC(C)(COP(=O)(O)OP(=O)(O)OC[C@H]1O[C@@H](n2cnc3c(N)ncnc32)[C@H](O)[C@@H]1OP(=O)(O)O)[C@@H](O)C(=O)NCCC(=O)NCCS [CoA, Coenzyme A]
  lifespan of pnk-1 mutants: improved these phenotypes significantly
  motility of pnk-1 mutants: improved these phenotypes significantly
